Tests used:
[1] = target: T1, PI3K-α (PIK3CA) wild-type (WT), p110α/p85α complex (Homo sapiens, UniProt P42336); experiment: PI3K-alpha kinase (PIK3CA) biochemical activity, ADP-Glo, wild-type
T1 construct: Recombinant, catalytically active human full length PIK3KA Wild-type and H1047R mutant; 6×His (N); purchased EMD Millipore Sigma 14-602M
In short: (§1)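 ADP formation measured by ADP-Glo luminescence after reaction at 27 °C to about 10% ATP turnover, using 20 uM ATP, 50 uM PIP2diC8 or soy PI lipid, HEPES pH 7.4 with MgCl2. Enzyme (1-5 nM WT or H1047R p110α/p85α) and compound preincubated 1 h first; 10-point 1:3 curves fitted four-parameter for IC50.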

[2] = target: T2, PI3K-α (PIK3CA) H1047R mutant, p110α/p85α complex (Homo sapiens, UniProt P42336, H1047R); experiment: PI3K-alpha kinase (PIK3CA) biochemical activity, ADP-Glo, H1047R mutant
T2 construct: Recombinant, catalytically active human full length PIK3KA Wild-type and H1047R mutant; 6×His (N); purchased EMD Millipore Sigma 14-792M
In short: as §1

[3] = target: PI3K-α (PIK3CA) in MDA-MB-453 cells (Homo sapiens, UniProt P42336); experiment: PI3K-alpha kinase (PIK3CA) in vitro cell based assay, MDA-MB-453 cells, SureFire Ultra AlphaLisa; details: read-out: PI3K-α (PIK3CA) in vitro cell based assay IC50
Protocol: PI3K-Alpha Kinase (PIK3CA) Activity In Vitro Cell Based Assay and Determining IC50 Values for Inhibitors
The MDA-MB-453 (ATCC-HTB-131) cell line was obtained from the American Type Culture Collection (Manassas, VA). Cells were maintained in Dulbecco's Modified Eagle Media (DMEM, Gibco 11965-092) supplemented with 10% Fetal Bovine Serum, heat inactivated (FBS HI, Gibco 10082-147), 1× non-essential amino acids (NEAA, Gibco 11140-050), and 1 mM sodium pyruvate (Gibco 11360-070). Cultures were maintained in a humidified incubator at 37° C. under 5% CO2/95% air.
For compound testing in 0% FBS, MDA-MB-453 cells were seeded at a density of 1.5×10^4 cells per well in white 384-well plates in 20 μl of Minimum Essential Media (MEM) assay media with 1×NEAA, 1 mM sodium pyruvate, and 1 μg/mL human insulin (Sigma I9278). Compounds dissolved in 10 mM stock solutions in DMSO were serially diluted 1:3 in DMSO to generate a 10-point dilution series and plated using an acoustic liquid handler system (Echo 550 Series Liquid Handler, Labcyte). A 5× intermediate compound dilution plate in MEM with 1×NEAA and 1 mM sodium pyruvate (150 μM starting compound concentration in 1.5% DMSO) was then prepared. Five μl of the intermediate serially diluted compounds were added to the cell plate to final concentrations ranging from […] in 0.3% DMSO. 0.3% DMSO alone was used to establish the maximum (MAX) signal and GDC-0032 at a final concentration of 1 μM was used as a reference compound for the minimum (MIN) signal. After 3 hours treatment, the medium was removed, and the cells lysed in 10 μL of 1× SureFire Lysis buffer with shaking for 10 minutes at room temperature. The Acceptor Mix (Reaction Buffer 1+Reaction Buffer 2+Activation Buffer+SureFire Ultra Acceptor Beads) was prepared by diluting Activation buffer 25-fold in combined Reaction Buffer 1 and Reaction Buffer 2. The Acceptor beads were diluted 50-fold in the combined Reaction Buffers. Five μL of Acceptor Mix was added to each well, the plate was sealed and covered with foil and incubated for 1 hour at room temperature. The Donor Mix (dilution buffer+SureFire Ultra Donor Beads) was prepared by diluting Donor Beads 50-fold in dilution buffer. Five μL of the Donor Mix was added to each well and the plate sealed and covered with foil and incubated for 1 hour at room temperature in the dark. The plates were read on a Neo2 plate reader instrument from Biotek using standard AlphaLisa settings. Compounds were tested in duplicate and the average % inhibition at each compound concentration was used to generate a single dose response curve. The data were processed using the Genedata-Screener tool. Relative IC50 values were determined using luminescence units by calculating percent inhibition with respect to the in-plate “MIN” (GDC-0032 reference control) and “MAX” (DMSO) controls. The data was analyzed using a 4-parameter nonlinear logistic equation (four-parameter logistic concentration-response curve): Y=bottom+[(top−bottom)/1+(X/IC50)slope] where Y=% inhibition, X=concentration of inhibitor, bottom=minimum value of y attained by curve-fit, top=maximum value of y attained by curve-fit and slope=steepness of curve at the IC50. % Inhibition=[(signal at X−median Min)/(median Max−median Min)]×100 IC50: concentration of compound that reduces a given response (ligand binding, enzyme response) by 50%. Relative IC50: concentration giving half the compound's maximum response.

[4] = PIP2diC8 lipid substrate (footnote 1)

T2 sequence (P42336 whole entry H1047R): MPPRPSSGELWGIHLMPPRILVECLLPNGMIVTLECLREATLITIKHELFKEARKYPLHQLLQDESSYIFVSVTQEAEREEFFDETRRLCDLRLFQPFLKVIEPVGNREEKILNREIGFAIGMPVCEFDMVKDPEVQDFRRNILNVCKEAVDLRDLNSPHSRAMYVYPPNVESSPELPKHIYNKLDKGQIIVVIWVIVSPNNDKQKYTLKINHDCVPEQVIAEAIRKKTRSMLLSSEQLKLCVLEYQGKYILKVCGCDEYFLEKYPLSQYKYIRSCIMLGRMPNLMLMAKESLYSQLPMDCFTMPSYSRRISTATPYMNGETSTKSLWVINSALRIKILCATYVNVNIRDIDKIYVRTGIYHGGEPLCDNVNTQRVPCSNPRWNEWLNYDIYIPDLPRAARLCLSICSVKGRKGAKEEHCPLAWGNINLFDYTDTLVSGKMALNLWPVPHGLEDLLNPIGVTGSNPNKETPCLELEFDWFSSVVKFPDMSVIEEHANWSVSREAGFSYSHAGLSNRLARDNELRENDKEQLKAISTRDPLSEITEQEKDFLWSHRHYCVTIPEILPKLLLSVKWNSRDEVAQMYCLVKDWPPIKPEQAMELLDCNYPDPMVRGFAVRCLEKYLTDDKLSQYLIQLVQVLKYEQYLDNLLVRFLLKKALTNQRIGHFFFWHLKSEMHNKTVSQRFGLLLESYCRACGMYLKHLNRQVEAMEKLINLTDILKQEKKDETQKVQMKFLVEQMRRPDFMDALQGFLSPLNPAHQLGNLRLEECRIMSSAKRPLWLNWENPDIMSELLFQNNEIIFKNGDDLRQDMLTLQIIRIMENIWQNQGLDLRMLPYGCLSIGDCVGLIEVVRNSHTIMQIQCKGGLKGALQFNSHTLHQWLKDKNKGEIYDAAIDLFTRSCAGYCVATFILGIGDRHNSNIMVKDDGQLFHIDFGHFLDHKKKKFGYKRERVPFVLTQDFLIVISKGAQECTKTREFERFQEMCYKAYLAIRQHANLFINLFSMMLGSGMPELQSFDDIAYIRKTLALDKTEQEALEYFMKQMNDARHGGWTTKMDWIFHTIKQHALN
T2 sequence (P27986 whole entry partner): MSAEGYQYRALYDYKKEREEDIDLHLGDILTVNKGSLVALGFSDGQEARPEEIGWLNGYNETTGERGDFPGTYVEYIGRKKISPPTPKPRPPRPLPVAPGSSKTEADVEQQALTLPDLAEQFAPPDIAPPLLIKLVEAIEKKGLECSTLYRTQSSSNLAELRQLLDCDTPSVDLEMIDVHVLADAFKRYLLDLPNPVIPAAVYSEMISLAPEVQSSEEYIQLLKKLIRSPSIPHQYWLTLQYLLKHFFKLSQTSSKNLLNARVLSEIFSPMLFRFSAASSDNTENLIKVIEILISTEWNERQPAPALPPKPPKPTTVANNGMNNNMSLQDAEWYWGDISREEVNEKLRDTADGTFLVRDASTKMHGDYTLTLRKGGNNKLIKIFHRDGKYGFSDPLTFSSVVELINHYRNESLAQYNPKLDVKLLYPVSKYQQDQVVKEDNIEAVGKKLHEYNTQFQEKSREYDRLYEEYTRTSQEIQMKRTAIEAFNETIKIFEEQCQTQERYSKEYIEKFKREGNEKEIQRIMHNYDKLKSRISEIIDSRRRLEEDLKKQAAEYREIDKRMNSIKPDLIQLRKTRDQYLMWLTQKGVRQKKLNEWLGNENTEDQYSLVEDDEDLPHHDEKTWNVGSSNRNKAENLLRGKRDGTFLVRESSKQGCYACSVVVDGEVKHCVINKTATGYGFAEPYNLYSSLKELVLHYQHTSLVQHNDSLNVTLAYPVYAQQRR
Chain of PI3K-α (PIK3CA) in MDA-MB-453 cells (P27986 2-724): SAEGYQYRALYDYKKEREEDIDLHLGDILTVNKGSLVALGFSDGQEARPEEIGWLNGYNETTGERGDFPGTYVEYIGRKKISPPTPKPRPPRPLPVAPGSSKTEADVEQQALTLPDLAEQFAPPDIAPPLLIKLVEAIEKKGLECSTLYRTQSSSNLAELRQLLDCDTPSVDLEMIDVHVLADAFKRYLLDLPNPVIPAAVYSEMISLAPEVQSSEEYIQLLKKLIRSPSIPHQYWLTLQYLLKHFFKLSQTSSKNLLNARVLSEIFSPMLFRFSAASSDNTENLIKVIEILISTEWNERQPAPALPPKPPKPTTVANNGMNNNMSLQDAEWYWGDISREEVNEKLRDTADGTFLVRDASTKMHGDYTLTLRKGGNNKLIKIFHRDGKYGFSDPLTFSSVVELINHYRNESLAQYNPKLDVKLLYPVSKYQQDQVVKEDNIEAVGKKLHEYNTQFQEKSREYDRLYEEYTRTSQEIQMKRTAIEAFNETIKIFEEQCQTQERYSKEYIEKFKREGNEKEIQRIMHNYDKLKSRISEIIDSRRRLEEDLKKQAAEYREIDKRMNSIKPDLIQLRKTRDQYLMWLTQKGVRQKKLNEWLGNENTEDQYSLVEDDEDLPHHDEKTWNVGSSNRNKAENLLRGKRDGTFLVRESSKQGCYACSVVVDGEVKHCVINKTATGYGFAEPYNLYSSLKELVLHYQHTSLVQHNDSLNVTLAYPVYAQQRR
Chain of PI3K-α (PIK3CA) in MDA-MB-453 cells (P42336 whole entry): as the sequence (P42336 whole entry H1047R) above, with R1047H counted along it

Structure (SMILES)	IC50 ([1]; Soy PI lipid substrate) [nM]	IC50 ([2]; Soy PI lipid substrate) [nM]	IC50 [3] [nM]	IC50 [1, 4] [nM]	IC50 [2, 4] [nM]
Cc1cc(C(C)Nc2ccccc2C(=O)O)c2oc(-c3ccc4nc(C)sc4c3)cc(=O)c2c1 (single isomer, unassigned) [Example 74, 2-[1-[6-Methyl-2-(2-methyl-1,3-benzothiazol-6-yl)-4-oxo-chromen-8-yl]ethylamino]benzoic acid]	500 to 1000	< 500	< 50	–	–
Cc1cc(C(C)Nc2ccccc2C(=O)O)c2oc(-c3ccc4nn(C)cc4c3)c(C)c(=O)c2c1 (single isomer, unassigned) [Example 91, 2-[1-[3,6-Dimethyl-2-(2-methylindazol-5-yl)-4-oxo-chromen-8-yl]ethylamino]benzoic acid]	500 to 1000	< 500	< 50	–	–
Cc1cc(C(C)Nc2ccc(Cl)nc2C(=O)O)c2oc(-c3ccc4c(cnn4C)c3)cc(=O)c2c1 (single isomer, unassigned) [Example 218, 6-Chloro-3-[1-[6-methyl-2-(1-methylindazol-5-yl)-4-oxo-chromen-8-yl]ethylamino]pyridine-2-carboxylic acid]	< 500	< 500	< 50	–	–
Cc1cc(C(C)Nc2ccccc2C(=O)O)c2oc(-c3cc4ccncc4o3)c(C)c(=O)c2c1 (single isomer, unassigned) [Example 151, 2-[1-(2-Furo[2,3-c]pyridin-2-yl-3,6-dimethyl-4-oxo-chromen-8-yl)ethylamino]benzoic acid]	500 to 1000	< 500	< 50	–	–
Cc1cc(-c2cc(=O)c3cc(C(F)(F)F)cc(C(C)Nc4ccc(Cl)nc4C(=O)O)c3o2)cc2cn(C)nc12 (single isomer, unassigned) [Example 192, 6-Chloro-3-[1-[2-(2,7-dimethylindazol-5-yl)-4-oxo-6-(trifluoromethyl)chromen-8-yl]ethylamino]pyridine-2-carboxylic acid]	500 to 1000	500 to 1000	> 500	–	–
Cc1cc(C(C)Nc2ccccc2C(=O)O)c2oc(-c3ccc4c(c3)OCO4)c(C)c(=O)c2c1 (single isomer, unassigned) [Example 93, 2-[1-[2-(1,3-Benzodioxol-5-yl)-3,6-dimethyl-4-oxo-chromen-8-yl]ethylamino]benzoic acid]	500 to 1000	< 500	< 50	–	–
Cc1cc(C(C)Nc2ccccc2C(=O)O)c2oc(-c3ccc4cnn(C)c4c3)c(C)c(=O)c2c1 (single isomer, unassigned) [Example 149, 2-[1-[3,6-Dimethyl-2-(1-methylindazol-6-yl)-4-oxo-chromen-8-yl]ethylamino]benzoic acid]	< 500	< 500	< 50	–	–
Cc1cc(C(C)Nc2ccccc2C(=O)O)c2oc(-c3ccc4cc[nH]c4c3)c(C)c(=O)c2c1 (single isomer, unassigned) [Example 90, 2-[1-[2-(1H-Indol-6-yl)-3,6-dimethyl-4-oxo-chromen-8-yl]ethylamino]benzoic acid]	1000 to 5000	< 500	< 50	–	–
Cc1cc([C@@H](C)Nc2ccc(F)c(F)c2C(=O)O)c2oc(-c3ccc4nn(C)cc4c3)c(C)c(=O)c2c1 [Example 204, 6-[[(1R)-1-[3,6-Dimethyl-2-(2-methylindazol-5-yl)-4-oxo-chromen-8-yl]ethyl]amino]-2,3-difluoro-benzoic acid]	500 to 1000	< 500	50 to 100	–	–
Cc1cc([C@@H](C)Nc2ccc(Br)nc2C(=O)O)c2oc(-c3ccc4nn(C)cc4c3)c(C)c(=O)c2c1 [Example 244, 6-Bromo-3-[[(1R)-1-[3,6-dimethyl-2-(2-methylindazol-5-yl)-4-oxo-chromen-8-yl]ethyl]amino]pyridine-2-carboxylic acid]	< 500	< 500	< 50	–	–
Cc1cc([C@@H](C)Nc2cccc(F)c2C(=O)O)c2oc(-c3cc4cnccc4o3)c(C)c(=O)c2c1 [Example 264, 2-Fluoro-6-[[(1R)-1-(2-furo[3,2-c]pyridin-2-yl-3,6-dimethyl-4-oxo-chromen-8-yl)ethyl]amino]benzoic acid; 2,2,2-trifluoroacetic acid]	< 500	< 500	< 50	–	–
Cc1cc(C(C)Nc2ccccc2C(=O)O)c2oc(-c3ccc4nccn4n3)cc(=O)c2c1 (single isomer, unassigned) [Example 35, 2-[1-(2-Imidazo[1,2-b]pyridazin-6-yl-6-methyl-4-oxo-chromen-8-yl)ethylamino]benzoic acid]	5000 to 10000	5000 to 10000	> 500	–	–
CC(Nc1ccccc1C(=O)O)c1cc(F)cc2c(=O)cc(-c3ccc4nn(C)cc4c3)oc12 (single isomer, unassigned) [Example 156, 2-[1-[6-Fluoro-2-(2-methylindazol-5-yl)-4-oxo-chromen-8-yl]ethylamino]benzoic acid]	1000 to 5000	1000 to 5000	> 500	–	–
Cc1cc(C(C)Nc2ccccc2C(=O)O)c2oc(-c3ccc4cc[nH]c4c3)cc(=O)c2c1 (stereo not drawn) [Example 18, 2-[1-[2-(1H-Indol-6-yl)-6-methyl-4-oxo-chromen-8-yl]ethylamino]benzoic acid]	1000 to 5000	< 500	100 to 500	–	–
Cc1cc(C(C)Nc2ccccc2C(=O)O)c2oc(-c3cnc4nn(C)cc4c3)cc(=O)c2c1 (stereo not drawn) [Example 9, 2-[1-[6-Methyl-2-(2-methylpyrazolo[3,4-b]pyridin-5-yl)-4-oxo-chromen-8-yl]ethylamino]benzoic acid]	–	–	> 500	500 to 1000	< 500
Cc1cc(C(C)Nc2ccccc2C(=O)O)c2oc(-c3cc(C)c4nn(C)cc4c3)cc(=O)c2c1 (single isomer, unassigned) [Example 126, 2-[1-[2-(2,7-Dimethylindazol-5-yl)-6-methyl-4-oxo-chromen-8-yl]ethylamino]benzoic acid]	1000 to 5000	< 500	< 50	–	–
Cc1cc([C@@H](C)Nc2ccccc2C(=O)O)c2oc(-c3ccc4nc(C)oc4c3)c(C)c(=O)c2c1 [Example 261, 2-[[(1R)-1-[3,6-Dimethyl-2-(2-methyl-1,3-benzoxazol-6-yl)-4-oxo-chromen-8-yl]ethyl]amino]benzoic acid]	500 to 1000	< 500	< 50	–	–
Cc1cc(C(C)Nc2ccccc2C(=O)O)c2oc(-n3ncc4c(F)cccc43)cc(=O)c2c1 (single isomer, unassigned) [Example 86]	500 to 1000	< 500	50 to 100	–	–
Cc1cc(C(C)Nc2ccccc2C(=O)O)c2oc(-c3ccc4cnn(C)c4n3)cc(=O)c2c1 (single isomer, unassigned) [Example 82, 2-[1-[6-Methyl-2-(1-methylpyrazolo[3,4-b]pyridin-6-yl)-4-oxo-chromen-8-yl]ethylamino]benzoic acid]	500 to 1000	< 500	100 to 500	–	–

Source: US11878970B2, “Allosteric chromenone inhibitors of phosphoinositide 3-kinase (PI3K) for the treatment of disease” (Petra Pharma Corporation, priority 2021, dated 2024)
